“Also recorded” adds a separate entry of the source. Where two headings read alike, the source gives them in different places. Where no end group is shown, it is not given here.
What was measured:
[1] = Mouse weight in the skin abscess model; design: species or system CD-1 mice; conditions: in vivo
Protocol: (§1) The backs of six-week-old female CD-1 mice under anaesthesia were shaved and injured with a superficial linear skin abrasion made with a needle. An aliquot of A. baumannii ATCC 19606 (2 × 10^6 CFU ml^−1; 20 μl) previously grown in LB medium until 0.5 optical density ml^−1 (optical value at 600 nm) and then washed twice with sterile PBS (pH 7.4, 9,391 g for 3 min) was added to the scratched area. Peptides diluted in sterile water at MIC value were administered to the wound area 1 h after the infection. Two and four days after infection animals were euthanized, and the scarified skin was excised, homogenized using a bead beater (25 Hz for 20 min), tenfold serially diluted, and plated on McConkey agar plates for CFU quantification. The experiments were performed using six mice per group. Mice were housed in groups of three and maintained under a 12-h light/dark cycle at 22 °C with humidity controlled at 50%. The skin abscess infection mouse model was revised and approved by University Laboratory Animal Resources from the University of Pennsylvania (protocol 806763).
(§2) Figure S6. Cytotoxicity and anti-infective activity of designed peptides. (a) Cytotoxic effects of increasing concentrations ([…]) of each peptide on human embryonic kidney (HEK293T) cells after 24 h of treatment. Mouse weight was monitored throughout the duration of the (b) skin abscess model (4 days total) and the (e) deep thigh infection model (8 days total) to assess potential toxic effects of both the bacterial load and the designed peptides. (c) Schematic of the neutropenic thigh infection mouse model, where the designed peptides were administered intraperitoneally. Anti-infective activity against A. baumannii ATCC 19606 was evaluated 4 days after intraperitoneal peptide administration (n = 6). (d) Four days after intraperitoneal injection, NE2 at its MIC (32 µmol L-1) inhibited by […]
(§3) Statistical significance in panel d was determined using one-way ANOVA followed by Dunnett’s test; P values are shown in the graphs. […]

[2] = format: in vivo, CD-1 mice; conditions: deep thigh infection model
Protocol: Six-week-old female CD-1 mice were rendered neutropenic by two doses of cyclophosphamide (150 mg kg^−1 and 100 mg kg^−1) applied intraperitoneally 3 and 1 d before the infection. On day 4 of the experiment, the mice were infected in their right thighs with a 100-μl intramuscular injection of the A. baumannii ATCC 19606 in PBS at concentration of 5 × 10^6 CFU ml^−1. The bacterial cells were grown in LB broth, washed twice with PBS solution and diluted at the desired concentration. The peptides were administrated intraperitoneally 2 h after the infection. Two days after infection mice were euthanized, and the tissue from the right thigh was excised, homogenized using a bead beater (25 Hz for 20 min), tenfold serially diluted, and plated on McConkey agar plates for bacterial colony counting. The experiments were performed using six mice per group. […]
Figure S6. […] Mouse weight was monitored throughout the duration of the (b) skin abscess model (4 days total) and the (e) deep thigh infection model (8 days total) to assess potential toxic effects of both the bacterial load and the designed peptides. […] Anti-infective activity against A. baumannii ATCC 19606 was evaluated 4 days after intraperitoneal peptide administration (n = 6). […]
as §3

E. coli ATCC 11775 = format: cell-based, Escherichia coli; conditions: ATCC 11775, 24 h
Protocol: (§4) Fig. 2 Antimicrobial activity and secondary structure of computationally designed peptides. a, Structure prediction of the synthesized peptides. b, Heatmap of the antimicrobial activities of the peptides against 11 clinically relevant pathogens, including four strains resistant to conventional antibiotics. Briefly, 10^6 bacterial cells and serially diluted peptides (1-64 μmol l^−1) were incubated at 37 °C. One day after treatment, the optical density at 600 nm was measured in a microplate reader to evaluate bacterial growth in the presence of the peptides. MIC values in the heatmap are the mode of the replicates in each condition. c–f, Ternary plots showing the percentage of secondary structure for each peptide (at 50 μmol l^−1) in four different solvents: water (c), 60% TFE in water (d), 10 mmol l^−1 SDS in water (e) and 50% methanol (MeOH) in water (f). Secondary structure fractions were calculated using the BeStSel server. […] An error of one column cannot be fully excluded. / Panel b: AT1, AT2, AT3 and all blank cells print no number and are left out.
Broth microdilution assays[64] were conducted to establish the MIC for each peptide. Peptides were added to untreated polystyrene 96-well microtiter plates and serially diluted twofold in sterile water, ranging from 1 to 64 μmol l^−1. […]

A. baumannii ATCC 19606 [3] = format: cell-based, Acinetobacter baumannii
Protocol: as §4
(§5) In this study, we used the following pathogenic bacterial strains: A. baumannii ATCC 19606, E. coli AIC221 (E. coli MG1655 phnE_2::FRT (control strain for AIC222)) and E. coli AIC222 (E. coli MG1655 pmrA53 phnE_2::FRT (polymyxin resistant; colistin-resistant strain)), Klebsiella pneumoniae ATCC 13883, Pseudomonas aeruginosa PAO1, P. aeruginosa PA14 and Staphylococcus aureus ATCC 12600. All pathogens were grown in Luria–Bertani (LB) broth and on LB agar. Pseudomonas isolation (P. aeruginosa strains) agar plates were exclusively used in the case of Pseudomonas species. In all the experiments, bacteria were inoculated from one isolated colony and grown overnight (16 h) in liquid medium at 37 °C. On the following day, inocula were diluted 1:100 in fresh media and incubated at 37 °C to mid-logarithmic phase.
(§6) Broth microdilution assays[64] were conducted to establish the MIC for each peptide. Peptides were added to untreated polystyrene 96-well microtiter plates and serially diluted twofold in sterile water, ranging from 1 to 64 μmol l^−1. A bacterial inoculum at a concentration of 10^6 CFU ml^−1 in LB medium was then mixed in a 1:1 ratio with the peptide solution. […] Each assay was performed in three independent replicates.

A. baumannii ATCC 19606 [4] = test: Skin abscess infection mouse model, bacterial load; format: in vivo, CD-1 mice; conditions: single dose at MIC on the wound 1 h after infection, n = 6
Protocol: Fig. 4 Anti-infective activity of designed peptides in a skin scarification animal model. a, Schematic representation of the skin abscess mouse model used to assess the anti-infective activity of the designed peptides (n = 6) against A. baumannii ATCC 19606. […] Statistical significance in panel b was determined using one-way ANOVA followed by Dunnett’s test; P values are shown in the graphs. In the violin, the centre line represents the […], the box limits the first and third quartiles and the whiskers (minima and maxima) represent 1.5 × the interquartile range. Panel a created with BioRender.com. Source data
as §1, with “The experiments were performed using six mice per group. Mice were housed in groups of three and maintained under a 12-h light/dark cycle at 22 °C with humidity controlled at 50%. The skin abscess infection mouse model was revised and approved by University Laboratory Animal Resources from the University of Pennsylvania (protocol 806763).” left out

[5] = test system: E. faecium ATCC 700221 - VRE; format: cell-based; conditions: ATCC 700221, 24 h
Protocol: as §4, §6

K. pneumoniae ATCC 13883 = format: cell-based, Klebsiella pneumoniae; conditions: ATCC 13883, 24 h
Protocol: as §4, §5, §6

A. baumannii ATCC 19606 [6] = test: Deep thigh infection mouse model, bacterial load; format: in vivo, CD-1 mice; conditions: n = 6; for reduction of A. baumannii bacterial load, deep thigh infection model: neutropenic mice, peptides intraperitoneally
Protocol: Six-week-old female CD-1 mice were rendered neutropenic by two doses of cyclophosphamide (150 mg kg^−1 and 100 mg kg^−1) applied intraperitoneally 3 and 1 d before the infection. On day 4 of the experiment, the mice were infected in their right thighs with a 100-μl intramuscular injection of the A. baumannii ATCC 19606 in PBS at concentration of 5 × 10^6 CFU ml^−1. The bacterial cells were grown in LB broth, washed twice with PBS solution and diluted at the desired concentration. The peptides were administrated intraperitoneally 2 h after the infection. Two days after infection mice were euthanized, and the tissue from the right thigh was excised, homogenized using a bead beater (25 Hz for 20 min), tenfold serially diluted, and plated on McConkey agar plates for bacterial colony counting. The experiments were performed using six mice per group. Mice were housed in groups of three and maintained under a 12-h light/dark cycle at 22 °C with humidity controlled at 50%. The deep thigh infection mouse model was revised and approved by University Laboratory Animal Resources from the University of Pennsylvania (protocol 807055).
as §2, §3

P. aeruginosa PA14 = format: cell-based, Pseudomonas aeruginosa; conditions: PA14, 24 h
Protocol: as §4, §5
(§7) Broth microdilution assays[64] were conducted to establish the MIC for each peptide. […]

P. aeruginosa PAO1 = format: cell-based, Pseudomonas aeruginosa; conditions: PAO1, 24 h
Protocol: as §4, §5, §7

E. coli AIC221 = format: cell-based, Escherichia coli; conditions: AIC221, 24 h
Protocol: as §4, with “out. […]” for “out.”

A. baumannii ATCC 19606 [7] = test: Cytoplasmic-membrane depolarization, DiSC3-5; format: cell-based, Acinetobacter baumannii; conditions: DiSC3-5 fluorescence, peptides at their MIC, 60 min
Protocol: Fig. 3 Mechanism of action and cytotoxic activity of designed peptides. a, To assess whether the peptides act on bacterial membranes, all active peptides against A. baumannii American Type Culture Collection (ATCC) 19606 were subjected to outer-membrane permeabilization, and peptides active against A. baumannii ATCC 19606 and vancomycin-resistant E. faecalis ATCC 700802 were tested in cytoplasmic-membrane depolarization assays. b, The fluorescent probe NPN was used to assess membrane permeabilization induced by the tested peptides. c,d, The fluorescent probe DiSC3-5 was used to evaluate membrane depolarization caused by the designed peptides in A. baumannii ATCC 19606 (c) and vancomycin-resistant E. faecalis ATCC 700802 (d). […] All experiments were performed in three independent replicates. […]
The cytoplasmic-membrane depolarization assay was performed using the membrane-potential-sensitive dye DiSC3-5. […] Membrane depolarization was then followed by reading changes in the fluorescence (λex = 622 nm, λem = 670 nm) over time for 60 min. The relative fluorescence was calculated using the untreated control (buffer + bacteria + fluorescent dye) as baseline and the following equation was applied to reflect the percentage difference between the baselines and the sample: percentagedifference=100×(fluorescencesample−fluorescenceuntreatedcontrol)/fluorescenceuntreatedcontrol. […]

HEK293T cells = conditions: cited from earlier work
Protocol: Cytotoxicity was evaluated using human embryonic kidney (HEK293T) cells (Fig. 3e)[45].

[8] = broth microdilution, LB, 10^6 CFU ml^-1, peptides 1-64 μmol l^-1, 24 h, 37 °C, OD600, mode of three replicates

Sequence	weight loss or skin damage [1]	weight loss or skin damage [2]	MIC (E. coli ATCC 11775) [µM]	MIC (A. baumannii ATCC 19606 [3]; ATCC 19606, 24 h) [µM]	MIC (A. baumannii ATCC 19606 [3]; [8]) [µM]	reduction of A. baumannii bacterial load, skin abscess model (A. baumannii ATCC 19606 [4])	MIC [5] [µM]	MIC (K. pneumoniae ATCC 13883) [µM]	reduction of A. baumannii bacterial load, deep thigh infection model (A. baumannii ATCC 19606 [6])	MIC (P. aeruginosa PA14) [µM]	MIC (P. aeruginosa PAO1) [µM]	MIC (E. coli AIC221) [µM]	cytoplasmic-membrane depolarization (A. baumannii ATCC 19606 [7])	inhibition of the A. baumannii ATCC19606 infection against the untreated control (A. baumannii ATCC 19606 [6]; four days after intraperitoneal injection, at its MIC)	cytotoxicity of the parental peptide (HEK293T cells)
HWKLIVRWKVQH [NG1]	No weight loss or skin damage	No weight loss or skin damage	16	4	4	up to two orders of magnitude; also recorded: inhibited the proliferation of the infection for up to 4 d after treatment	4	4	up to two orders of magnitude	16	32				
KFKLIVHYRICK [NG3]				32				16				8	particularly effective		
KWKARIQFKAAH [NE2]	No weight loss or skin damage	No weight loss or skin damage	16	32	32	up to two orders of magnitude; also recorded: inhibited the proliferation of the infection for up to 4 d after treatment	32	16	up to two orders of magnitude		64			one order of magnitude	
KWRLLIRWRIQK [IDR-2009]															did show cytotoxicity
